Patent publication US10330670B2, “Therapeutic or prophylactic agent for retinopathy of prematurity, testing method for retinopathy of prematurity, and screening method for therapeutic or prophylactic substance for retinopathy of prematurity” (TOKYO UNIVERSITY OF AGRICULTURE AND TECHNOLOGY, priority 2012, dated 2019)
Entries after “also recorded” stand apart in the source; their conditions may differ.

What was measured:
[1] = system: human mast cell strain HMC-1; test: Degranulation of mast cells induced by variation of oxygen concentration, β-hexosaminidase release; assay type: cell-based; conditions: 75% O2 24 hours then 20% O2 12 hours, p<0.05
Source text: It has been known that human mast cell strain HMC-1 is a cell strain derived from leukemia, that it has a characteristic as a mast cell, and that it includes β-hexosaminidase in its granules. With reference to a previous report (European Journal of Immunology, Vol. 29, 2645-2649 (1999)), HMC-1 cells were suspended in an α-MEM culture medium to which 10% (v/v) fetal calf serum and a usual dose of antibiotic had been added for preparation of a mast cell suspension with a cell concentration of 5×10^5 cells/ml. Throughout the test period including the period in the high oxygen concentration environment, all the cells were subjected to an environment of 5% (v/v) CO2, 37° C. as the cultivation condition other than the oxygen concentration.
The mast cell suspension was dispensed on a 96-well plate at 4×10^5 cells/well. Cromolyn and each of the seven candidate substances were added to obtain the following concentrations. As controls (media) to which the agent was not added and as non-treated examples to which the marker substance release induction process was not carried out, wells to which neither cromolyn nor the candidate substances was added were set.
The marker substance (β-hexosaminidase) release induction process and the step for contact with the mast cells HMC-1 that had been subjected to the marker substance release induction process were performed by retaining the 96-well plate in the high oxygen concentration environment (75 v/v % oxygen) for 24 hours and in the normal oxygen environment (20 v/v % oxygen) for 12 hours. For the non-treated example, the 96-well plate was retained in the normal oxygen environment (20 v/v % oxygen) for 24 hours and further retained in the normal oxygen environment for 12 hours.
The detection and measurement of the marker substance (β-hexosaminidase) that had been released by degranulation of the mast cells in the contacting step were carried out by a previously reported method (Eur. J. Immunol. 19 (1989) 2251-2256). To put it briefly, the step was carried out in the following manner. After having collecting the supernatant from the respective wells after the contacting step, the pellets (cells) were dissolved in a 0.5% triton X-100-containing α-minimal essential medium (α-MEM: a product of Gibco) at the same volume. In the respective wells of the 96-well plate, 5 μl supernatant or cell lysates were mixed with a 50 μl substrate solution (1.3 mg/ml p-nitrophenyl-N-acetyl-β-D-glucosamine;
pH 4.5 in 100 mM sodium citrate). After incubation at 37° C. for 60 minutes, 150 μl, 200 mM solution of glycine (pH 10.7) was added, and the reaction was stopped. The absorbance was measured at 414 nm. The (%) of the released marker substance (β-hexosaminidase) was calculated according to the following expression; OD(supernatant)/(OD(supernatant).+OD(pellet))×100.
The test was performed by three-sample test, an average and standard deviation were calculated on the basis of the measurement results for statistic analysis by ANOVA+ Tukey's test.

[2] = system: retinal neovascularization; test: Influence of cromolyn on retinal neovascularization in oxygen-induced ROP model mice; assay type: in vivo; conditions: eyes on P17
Source text: As have been reported before (Invest. Ophthalmol. Vis. Sci., 35, 101-111 (1994), etc.), for the +/+ mice, +/W^sh mice, and W^sh/W^sh mice, respectively, neonatal mice were placed in a closed chamber containing 75 v/v % O2 together with their mother for lactation on P7, and this state was maintained for 5 days (P7-P12). Subsequently, this state was continued for further 5 days (P12-P17) in the normal oxygen environment (21 v/v % O2) for induction of oxygen-induced retinopathy (OIR) for use as experimental ROP models. The control mice were raised in the normal oxygen environment (indoor environment, 25° C., 21 v/v % O2. The same applies for the description of Examples.) throughout the test period. Note that the symbol “P”, which refers to a date, herein denotes that the date is a postnatal date, and “P7”, for example, refers to a 7th postnatal date. On P17, eyes were collected from the mice with ROP, fixed with Davidson's fixative overnight, and then embedded with paraffin. Paraffin-embedded serial sections axially sectioned at 6 μm were obtained, stained with HE, images were taken at the magnification 20, and the number of nuclei of the endothelial cells on the side of the vitreous body of the internal limiting membrane was counted. In the immunohistochemical test, the sections were subjected to incubation at 4° C. overnight together with anti-PECAM-1 antibody (a product of Santa Cruz Biotechnology, Inc.) having been diluted at 1:100 (in capacity ratio). To examine an influence in various states of different oxygen concentration, mice for use in the tests were raised in a period from P0 to P17 according to the schedule in which the normal oxygen environment was used in the period P0-P7 (21 v/v % oxygen), the high oxygen concentration environment in the period P7-P12 (75 v/v % oxygen), and the normal oxygen environment in the period P12-P17. On P7 and P12, the oxygen concentration environment was replaced. The neonatal mice of +/+ mice and the W^sh/W^sh mice were divided into three groups, and cromolyn (a product of Sigma Aldrich Corporation) dissolved in phosphate buffered saline (PBS) was injected to the mice at the concentration of 50 mg/kg/20 μL intraperitoneally every day. PBS was administered to the control group at the same volume. Administration methods of the agent for the respective groups were as illustrated in FIG. 5. Specifically, for the first group, cromolyn was administered to the neonatal mice from P6 to P16. […] Subsequently, similarly to Reference Example 1, the number of nuclei of the endothelial cell was counted after staining the ocular sections by HE, and thereby influences of cromolyn on the retinal neovascularization in the +/+ and W^sh/W^sh neonatal mice was evaluated in the similar manner as Reference Example 1.

[3] = system: retinal neovascularization; test: Influence of nafamostat mesilate (NM) on retinal neovascularization in ROP model mice; assay type: in vivo; conditions: 1 mg/kg intraperitoneally every day P12-P17
Procedure: For the ROP models, the BMCMC-injected W^sh/W^sh mice produced in Reference Example 2 (administered by an amount of 1×10^6 cells/20 μL) were used, and W^sh/W^sh mice to which saline was administered by the same volume were used as the control group. The oxygen concentration for the period P0-P17 was replaced by the same schedule as Example 1 (see FIG. 7). 1 mg/kg/20 μl NM dissolved in saline or saline was injected to the mice intraperitoneally in the period P12-P17 every day. On P17, the mice were slaughtered and eyes are collected, and evaluation of neovascularization was performed in the similar manner as Example 1. The results are illustrated in FIG. 8. In FIG. 8 the sign “*” denotes P<0.05 (compared with the number of nuclei of the endothelial cells of the vessels of the control mice).

NC1=NCC2c3ccccc3Cc3ccccc3N12 (stereo not drawn) [epinastine]
degranulation (ratio of released β-hexosaminidase) compared with controls (media) ([1]; 1 ng/ml): inhibited the degranulation

O=C(O)c1cc(=O)c2c(OCC(O)COc3cccc4oc(C(=O)O)cc(=O)c34)cccc2o1 [cromolyn, cromoglycic acid]
degranulation (ratio of released β-hexosaminidase) compared with controls (media) ([1]; 10 ng/ml): inhibited the degranulation
retinal neovascularization (number of nuclei of the endothelial cell, HE-stained ocular sections) ([2]; +/+ mice, first group: 50 mg/kg intraperitoneally every day P6-P16): a level as low as that in the W^sh/W^sh mice; also recorded: decreased pathological neovascularization
retinal neovascularization (number of nuclei of the endothelial cell, HE-stained ocular sections) ([2]; +/+ mice, third group: 50 mg/kg intraperitoneally every day P11-P16): a level as low as that in the W^sh/W^sh mice; also recorded: significantly small; also recorded: less than those in the W^sh/W^sh mice
retinal neovascularization (number of nuclei of the endothelial cell, HE-stained ocular sections) ([2]; second group: 50 mg/kg intraperitoneally every day P6-P11 (high oxygen period)): did not influence; also recorded: no effect of inhibition
retinal neovascularization (number of nuclei of the endothelial cell, HE-stained ocular sections) ([2]; second group: 50 mg/kg intraperitoneally every day P6-P11 (high oxygen period), listed as Cromolyn): did not influence

Cc1cccn2c(=O)c(-c3nnn[nH]3)cnc12 [pemirolast]
degranulation (ratio of released β-hexosaminidase) compared with controls (media) ([1]; 10 nM pemirolast): inhibited the degranulation

CCOCC(O)COc1ccc(NC(=O)CC[S+](C)C)cc1 (stereo not drawn) [suplatast]
degranulation (ratio of released β-hexosaminidase) compared with controls (media) ([1]; 10 μM suplatast): inhibited the degranulation

N=C(N)c1ccc2cc(OC(=O)c3ccc(N=C(N)N)cc3)ccc2c1 [NM, nafamostat mesilate]
retinal neovascularization (neovascular nuclei) ([3]; +/+ mice with induced ROP): inhibited retinal neovascularization
retinal neovascularization (neovascular nuclei) ([3]; BMCMC-injected W^sh/W^sh mice with induced ROP): inhibited retinal neovascularization

CC(C)c1ccc2oc3nc(N)c(C(=O)O)cc3c(=O)c2c1 [amlexanox]
degranulation (ratio of released β-hexosaminidase) compared with controls (media) ([1]; 1 μM amlexanox): inhibited the degranulation

C[C@@H]1CN([C@H]2CC[C@](C#N)(c3ccc(F)cc3)CC2)CC[C@]1(C(=O)O)c1ccccc1 [levocabastine]
degranulation (ratio of released β-hexosaminidase) compared with controls (media) ([1]; 10 nM levocabastine): inhibited the degranulation
